Results on 27 compounds are retold here after US20230091047A1 (priority 2019, published 2023).

Where two headings read alike, the source gives them in different places.

Data set [1] in a line: in vitro. In kind it is cell-based. The following applies: human, HepG2 or HepG2.117 cells, ATPlite, mean value. Put shortly: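 Luminescent ATP quantitation served as the viability endpoint following a 3- or 4-day incubation with test compounds.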
On the technique in general: Cellular ATP, detected with luciferase, serves as a proxy for viable cell number.

Data set [2] has as its system HBV (HepG2.117 cell line, inducibly HBV producing). In words: Anti-HBV activity: intracellular HBV DNA by real-time PCR in HepG2.117 cells after 3 days of treatment. The data set is classed as cell-based, hepatitis B virus. Summed up:
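Read-out is intracellular HBV DNA, measured by real-time PCR using HBV-specific primers and probe. Cells were stable, inducible HBV-producing HepG2.117 (Tet-off). Serially diluted compound was applied for 3 days after replication was induced.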
In general terms: Quantitative PCR measures a nucleic acid by following its amplification.

The mark [3] stands for this setting: 3-days incubation (unmarked values).
Where [4] appears, read: Hepatitis B virus, HepG2.117, 72 h, HepG2.117 cells, 3 days of treatment, intracellular HBV DNA by real-time PCR; mean value; read-out: EC50 (μM, mean value).
Where [5] appears, read: 3-days incubation (not marked with *).
The mark [6] stands for this setting: Hepatitis B virus, HepG2.117, 72 h, HepG2.117 cells, intracellular HBV DNA by real-time PCR, 3 days of treatment, mean value; read-out: EC50 (μM, mean value).

`COc1ccc(CNc2nc3c(c(=O)n2C2CCOCC2)CCN(C(=O)c2ccc(Cl)c(Cl)c2)C3)cc1` [Compound C93, 7-(3,4-dichlorobenzoyl)-2-{[(4-methoxyphenyl)methyl]amino}-3-(oxan-4-yl)-5,6,7,8-tetrahydropyrido[3,4-d]pyrimidin-4(3H)-one] yielded a half-maximal cytotoxic concentration (CC50) at 3 days in data set [1] (setting [3]) of 32 µM. Also, the EC50 in data set [2] (setting [4]) came to 1.73 µM.
`CNC(=O)c1ccc(-n2c(N[C@@H](CC3CC3)c3ccccc3)nc3c(c2=O)C[C@@H](C)N(C(=O)c2ccc(Cl)c(Cl)c2)C3)cc1` (single isomer, unassigned) [Compound C437b] returned a CC50 at 3 days in data set [1] (setting [5]) of 29.4 µM. For the same compound, in data set [2] (setting [6]), the half-maximal effective concentration (EC50) was 0.91 µM.
Take `CC(C)Nc1nc2c(c(=O)n1-c1ccc(S(C)(=O)=O)cc1)CCN(C(=O)c1ccc3scnc3c1)C2` [Compound C366]: the CC50 at 3 days in data set [1] (setting [3]) is > 50 µM. Besides, the EC50 in data set [2] (setting [4]) is > 10 µM.
The corresponding values for `C[C@@H]1Cc2c(nc(NC(C)(C)c3cnn(C)c3)n(-c3ccc(S(C)(=O)=O)cc3)c2=O)CN1C(=O)c1ccc(Cl)c(Cl)c1` [Compound C207, (6R)-7-(3,4-dichlorobenzoyl)-3-[4-(methanesulfonyl)phenyl]-6-methyl-2-{[2-(1-methyl-1H-pyrazol-4-yl)propan-2-yl]amino}-5,6,7,8-tetrahydropyrido[3,4-d]pyrimidin-4(3H)-one] are > 50 µM and 0.59 µM.
On to `CNc1noc2cc(-n3c(NC(C)C)nc4c(c3=O)C[C@@H](C)N(C(=O)c3ccc(Cl)c(Cl)c3)C4)c(C)cc12` [Compound C447], for which the cytotoxic concentration (CC50) at 3 days in data set [1] (setting [5]) is > 50 µM. The concentration for a half-maximal effect (EC50) in data set [2] (HepG2.117 cells, intracellular HBV DNA by real-time PCR, 3 days of treatment, mean value; read-out: EC50 (μM, mean value)) was 0.1 µM.
Take `CNC(=O)c1ccc(-n2c(N[C@@H](C)c3ccc(C)cc3)nc3c(c2=O)C[C@@H](C)N(C(=O)c2ccc(Cl)c(Cl)c2)C3)cc1` [Compound C431]: in data set [1] (setting [5]), the CC50 at 3 days was 20.6 µM. Moreover, the EC50 in data set [2] (setting [6]) stood at 0.03 µM.
In data set [1] (setting [3]), `CCOC(=O)[C@H]1CC[C@@H](n2c(NC(C)C)nc3c(c2=O)C[C@@H](C)N(C(=O)c2ccc(Cl)c(Cl)c2)C3)CC1` [Compound C273, ethyl cis-4-[(6R)-7-(3,4-dichlorobenzoyl)-6-methyl-4-oxo-2-[(propan-2-yl)amino]-5,6,7,8-tetrahydropyrido[3,4-d]pyrimidin-3(4H)-yl]cyclohexane-1-carboxylate] gave a CC50 at 3 days of 33.4 µM. Moreover, in data set [2] (setting [4]), the half-maximal effective concentration (EC50) is 0.31 µM.
On to `CNC(=O)c1ccc(-n2c(N[C@H](C)c3ccc4[nH]cnc4c3)nc3c(c2=O)C[C@@H](C)N(C(=O)c2ccc(Cl)c(Cl)c2)C3)cc1` (single isomer, unassigned) [Compound C647a], for which the 50% cytotoxic concentration (CC50) at 3 days in data set [1] (setting [5]) is > 50 µM. Moreover, the EC50 in data set [2] (setting [6]) was > 2.5 µM.
On to `COc1ccc(CNc2nc3c(c(=O)n2-c2ccc(C(=O)O)cc2)CCN(C(=O)c2ccc(Cl)c(Cl)c2)C3)cc1` [Compound C124, 4-[7-(3,4-dichlorobenzoyl)-2-{[(4-methoxyphenyl)methyl]amino}-4-oxo-5,6,7,8-tetrahydropyrido[3,4-d]pyrimidin-3(4H)-yl]benzoic acid], for which, in data set [1] (setting [3]), the CC50 at 3 days was > 50 µM. In addition, in data set [2] (setting [4]), the EC50 is 36.8 µM.
`CC(C)NC(=O)c1cnc(-n2c(NC(C)C)nc3c(c2=O)C[C@@H](C)N(C(=O)c2ccc(Cl)c(Cl)c2)C3)nc1` [Compound C382]: the 50% cytotoxic concentration (CC50) at 3 days in data set [1] (setting [5]) was > 50 µM. In addition, the half-maximal effective concentration (EC50) in data set [2] (setting [6]) came out at 0.05 µM.
The corresponding values for `CNC(=O)c1ccc(-n2c(N[C@@H](C)c3cccc(C(F)F)c3)nc3c(c2=O)C[C@@H](C)N(C(=O)c2ccc(Cl)c(Cl)c2)C3)cc1` (single isomer, unassigned) [Compound C660b] are 27.5 µM and 0.32 µM.
For the compound `CC(C)Nc1nc2c(c(=O)n1-c1ccc(N3CCOCC3)cc1)CCN(C(=O)c1ccc(Cl)c(Cl)c1)C2` [Compound C130, 7-(3,4-dichlorobenzoyl)-3-[4-(morpholin-4-yl)phenyl]-2-[(propan-2-yl)amino]-5,6,7,8-tetrahydropyrido[3,4-d]pyrimidin-4(3H)-one], the CC50 at 3 days in data set [1] (setting [3]) was > 50 µM. Further, the concentration for a half-maximal effect (EC50) in data set [2] (setting [4]) came out at 0.48 µM.
For the compound `CNC(=O)c1ccc(-n2c(NC(C)C)nc3c(c2=O)C[C@@H](C)N(C(=O)c2cc(Br)c(Cl)cc2OC)C3)cc1` [Compound C523], the CC50 at 3 days in data set [1] (setting [5]) was > 50 µM. Also, the EC50 in data set [2] (setting [6]) turned out to be 18 µM.
`CC(=O)Nc1ccc(-n2c(NC(C)C)nc3c(c2=O)C[C@@H](C)N(C(=O)c2ccc(Cl)c(Cl)c2)C3)cc1` [Compound C409]: in data set [1] (setting [5]), the CC50 at 3 days is > 50 µM. In addition, in data set [2] (setting [6]), the EC50 was determined as 0.11 µM.
On to `CC(C)Nc1nc2c(c(=O)n1-c1ccc(N3CCOCC3)cc1)C[C@@H](C)N(C(=O)c1ccc(Cl)c(Cl)c1)C2` [Compound C218, (6R)-7-(3,4-dichlorobenzoyl)-6-methyl-3-[4-(morpholin-4-yl)phenyl]-2-[(propan-2-yl)amino]-5,6,7,8-tetrahydropyrido[3,4-d]pyrimidin-4(3H)-one], for which, in data set [1] (setting [3]), the half-maximal cytotoxic concentration (CC50) at 3 days is > 50 µM. The 50% effective concentration (EC50) in data set [2] (setting [4]) turned out to be 0.16 µM.
In the case of `CNC(=O)c1ccc([C@@H](C)Nc2nc3c(c(=O)n2-c2ccc(NC(C)=O)cc2)C[C@@H](C)N(C(=O)c2ccc(Cl)c(Cl)c2)C3)cc1` (single isomer, unassigned) [Compound C528a], the CC50 at 3 days in data set [1] (setting [5]) was > 50 µM. Further, the EC50 in data set [2] (setting [6]) was 3.38 µM.
In the case of `CNC(=O)c1ccc(-n2c(N[C@@H]3CCOc4cc(OC)ccc43)nc3c(c2=O)C[C@@H](C)N(C(=O)c2ccc(Cl)c(Cl)c2)C3)cc1` (single isomer, unassigned) [Compound C527a], in data set [1] (setting [5]), the CC50 at 3 days is > 50 µM. For the same compound, the EC50 in data set [2] (setting [6]) was found to be 0.39 µM.
In data set [1] (setting [3]), `COCCn1c(NCc2ccc(OC)cc2)nc2c(c1=O)CCN(C(=O)c1ccc(Cl)c(Cl)c1)C2` [Compound C51, 7-(3,4-dichlorobenzoyl)-3-(2-methoxyethyl)-2-{[(4-methoxyphenyl)methyl]amino}-5,6,7,8-tetrahydropyrido[3,4-d]pyrimidin-4(3H)-one] registered a half-maximal cytotoxic concentration (CC50) at 3 days of 36.6 µM. In addition, in data set [2] (setting [4]), the half-maximal effective concentration (EC50) is 4.35 µM.
The corresponding values for `COc1ccc(CNc2nc3c(c(=O)n2-c2ccc(Br)cc2)CCN(C(=O)c2ccc(Cl)c(Cl)c2)C3)cc1` [Compound C125, 3-(4-bromophenyl)-7-(3,4-dichlorobenzoyl)-2-{[(4-methoxyphenyl)methyl]amino}-5,6,7,8-tetrahydropyrido[3,4-d]pyrimidin-4(3H)-one] are > 50 µM and 1.64 µM.
Take `CC(C)Nc1nc2c(c(=O)n1-c1ccc3c(c1)C(=O)NC3)C[C@@H](C)N(C(=O)c1ccc(Cl)c(Cl)c1)C2` [Compound C229, (6R)-7-(3,4-dichlorobenzoyl)-6-methyl-3-(3-oxo-2,3-dihydro-1H-isoindol-5-yl)-2-[(propan-2-yl)amino]-5,6,7,8-tetrahydropyrido[3,4-d]pyrimidin-4(3H)-one]: in data set [1] (setting [3]), the CC50 at 3 days was > 50 µM. Moreover, the concentration for a half-maximal effect (EC50) in data set [2] (setting [4]) was found to be 0.11 µM.
The corresponding values for `COc1ccc(CNc2nc3c(c(=O)n2-c2ccc4ncoc4c2)CCN(C(=O)c2ccc(Cl)c(Cl)c2)C3)cc1` [Compound C131, 3-(1,3-benzoxazol-6-yl)-7-(3,4-dichlorobenzoyl)-2-{[(4-methoxyphenyl)methyl]amino}-5,6,7,8-tetrahydropyrido[3,4-d]pyrimidin-4(3H)-one] are > 50 µM and 0.53 µM.
With `CNC(=O)c1ccc(-n2c(NCc3ccn(-c4ccc(F)cc4)n3)nc3c(c2=O)C[C@@H](C)N(C(=O)c2ccc(Cl)c(Cl)c2)C3)cc1` [Compound C465], it took 22.6 µM to reach half-maximal cytotoxicity in data set [1] (setting [5]) (CC50 at 3 days). Also, in data set [2] (setting [6]), the concentration for a half-maximal effect (EC50) stood at 0.65 µM.
As to `CCOC(=O)c1cccc(-n2c(NCc3ccc(OC)cc3)nc3c(c2=O)CCN(C(=O)c2ccc(Cl)c(Cl)c2)C3)c1` [Compound C74, ethyl 3-[7-(3,4-dichlorobenzoyl)-2-{[(4-methoxyphenyl)methyl]amino}-4-oxo-5,6,7,8-tetrahydropyrido[3,4-d]pyrimidin-3(4H)-yl]benzoate], the CC50 at 3 days in data set [1] (setting [3]) was > 50 µM. In addition, the EC50 in data set [2] (setting [4]) worked out at 1.43 µM.
As to `CNC(=O)c1ccc(-n2c(N[C@H]3CCOc4ccccc43)nc3c(c2=O)C[C@@H](C)N(C(=O)c2ccc(Cl)c(Cl)c2)C3)cc1` (single isomer, unassigned) [Compound C526b], the CC50 at 3 days in data set [1] (setting [5]) was found to be 16.3 µM. In addition, in data set [2] (setting [6]), the EC50 was 5.42 µM.
As to `CCc1cc(C(=O)N2CCc3c(nc(NC(C)C)n(-c4ccc(S(C)(=O)=O)cc4)c3=O)C2)ccc1Cl` [Compound C193, 7-(4-chloro-3-ethylbenzoyl)-3-[4-(methanesulfonyl)phenyl]-2-[(propan-2-yl)amino]-5,6,7,8-tetrahydropyrido[3,4-d]pyrimidin-4(3H)-one], in data set [1] (setting [3]), the CC50 at 3 days is > 50 µM. The concentration for a half-maximal effect (EC50) in data set [2] (setting [4]) worked out at 0.62 µM.
Regarding `Cc1csc(-c2ccc(-n3c(NC(C)C)nc4c(c3=O)C[C@@H](C)N(C(=O)c3ccc(Cl)c(Cl)c3)C4)cc2)n1` [Compound C247, (6R)-7-(3,4-dichlorobenzoyl)-6-methyl-3-[4-(4-methyl-1,3-thiazol-2-yl)phenyl]-2-[(propan-2-yl)amino]-5,6,7,8-tetrahydropyrido[3,4-d]pyrimidin-4(3H)-one], in data set [1] (setting [3]), the cytotoxic concentration (CC50) at 3 days is > 50 µM. Besides, the EC50 in data set [2] (setting [4]) stood at 0.12 µM.
`CNC(=O)[C@H]1CC[C@@H](n2c(NC(C)C)nc3c(c2=O)C[C@@H](C)N(C(=O)c2ccc(Cl)c(Cl)c2)C3)CC1` [Compound C280, cis-4-[(6R)-7-(3,4-dichlorobenzoyl)-6-methyl-4-oxo-2-[(propan-2-yl)amino]-5,6,7,8-tetrahydropyrido[3,4-d]pyrimidin-3(4H)-yl]-N-methylcyclohexane-1-carboxamide] showed a half-maximal cytotoxic concentration (CC50) at 3 days in data set [1] (setting [3]) of 24.6 µM. The EC50 in data set [2] (setting [4]) amounted to 0.1 µM.

A word on the CC50: it is the concentration that lowers cell viability or growth by half. Lower therefore signals harm at low concentration. What is called EC50 is the concentration that produces a half-maximal response.
